Reference: patent US6825230B2, “Spiro and dispiro 1,2,4-trixolane antimalarials” (Medicines for Malaria Venture MMV, priority 2002, dated 2004)
Converted amounts (≈) assume the structure as drawn. Like-named read-outs stand apart in the source and are kept apart here.

Key:
[1] = system: chloroquine-resistant K1 strain of P. falciparum; assay: In vitro antimalarial semiautomated microdilution assay ([3H]-hypoxanthine incorporation), K1 strain; format: cell-based, Plasmodium falciparum; conditions: Plasmodium falciparum
Summary of the method: (§1)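 IC50 comes from Logit regression of [3H]-hypoxanthine incorporation data. Intraerythrocytic P. falciparum taken from asynchronous stock cultures is exposed to OZ compounds in a semiautomated microdilution format.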

[2] = system: ANKA strain of P. berghei; assay: Single dose STI in vivo screen in infected mice; design: species or system Plasmodium berghei; conditions: for Survival (days) 10 mg/kg po: single 10 mg/kg po in 3% ethanol and 7% Tween 80; for Survival (days) 10 mg/kg po / Survival (days) 10 mg/kg SSV po / Survival (days) 10 mg/kg sc: untreated 6-7 days; for Activity (%) 10 mg/kg po: single 10 mg/kg po in 3% ethanol and 7% Tween 80 on day 1 post-infection; for Activity (%) 10 mg/kg po / Activity (%) 10 mg/kg SSV po / Activity (%) 10 mg/kg sc / Activity (%) 3 mg/kg SSV po: percent reduction in parasitemia on day 3; for Survival (days) 10 mg/kg SSV po: single 10 mg/kg po in SSV; for Activity (%) 10 mg/kg SSV po: single 10 mg/kg po in standard suspending vehicle (SSV) on day 1 post-infection; for Survival (days) 10 mg/kg sc: single 10 mg/kg sc in 3% ethanol and 7% Tween 80; for Activity (%) 10 mg/kg sc: single 10 mg/kg sc in 3% ethanol and 7% Tween 80 on day 1 post-infection; for Survival (days) 3 mg/kg SSV po / Activity (%) 3 mg/kg SSV po: single 3 mg/kg po in SSV
[3] = system: chloroquine-sensitive NF54 strain of P. falciparum; assay: In vitro antimalarial semiautomated microdilution assay ([3H]-hypoxanthine incorporation), NF54 strain; format: cell-based, Plasmodium falciparum; conditions: Plasmodium falciparum
Summary of the method: as §1

[4] = K1, 72 h, read-out: IC50 (ng/ml) K1, chloroquine-resistant K1 strain, 72 h incubation
[5] = NF54, 72 h, read-out: IC50 (ng/ml) NF54, chloroquine-sensitive NF54 strain, 72 h incubation
[6] = chloroquine-resistant K1 strain, 72 h incubation, read-out: IC50 (ng/ml) K1
[7] = chloroquine-sensitive NF54 strain, 72 h incubation, read-out: IC50 (ng/ml) NF54

For `O=C(NC[C@H]1CC[C@]2(CC1)OOC1(O2)C2CC3CC(C2)CC1C3)c1ccccc1C(=O)NC[C@H]1CC[C@]2(CC1)OOC1(O2)C2CC3CC(C2)CC1C3` (stereo partly drawn) [OZ230, N,N′-Bis[cis-[adamantane-2-spiro-3′-1′,2′,4′-trioxaspiro[4.5]dec-8′-yl]methyl]-1,2-benzenedicarboxamide], the IC50 [1, 4] was 3.9 ng/mL (≈ 5.44 nM), the “Survival (days) 10 mg/kg po” value [2] was 5.3 days and the “Activity (%) 10 mg/kg po” value [2] was 0/0/0%. The “Survival (days) 10 mg/kg SSV po” value [2] was 5.7 days, the “Activity (%) 10 mg/kg SSV po” value [2] was 0/0/0% and the “Survival (days) 10 mg/kg sc” value [2] was 5.7 days. For the same compound, the “Activity (%) 10 mg/kg sc” value [2] was 0/0/0% and the IC50 [3, 5] was 3.6 ng/mL (≈ 5.02 nM).
In the case of `C=C1COC2(CCC3(CC2)OOC2(O3)C3CC4CC(C3)CC2C4)OC1` (stereo not shown) [OZ128, Adamantane-2-spiro-3′-11′-methylene-1′,2′,4′,9′,13′-pentaoxadispiro[4.2.5.2]pentadecane], the IC50 [1, 4] is reported as 0.59 ng/mL (≈ 1.69 nM), the “Survival (days) 10 mg/kg po” value [2] is reported as 8.3 days and the “Activity (%) 10 mg/kg po” value [2] is reported as 99.93%. The “Survival (days) 10 mg/kg SSV po” value [2] was 8.7 days, the “Activity (%) 10 mg/kg SSV po” value [2] was 99.95% and the “Survival (days) 10 mg/kg sc” value [2] was 11.7 days. The “Activity (%) 10 mg/kg sc” value [2] was 99.98% and the IC50 [3, 5] was 1.1 ng/mL (≈ 3.16 nM).
With `NC1(C(=O)NC[C@H]2CC[C@]3(CC2)OO[C@]2(O3)C3CC4CC(C3)CC2C4)CCCCC1` [OZ333] the IC50 [1, 6] was 0.24 ng/mL (≈ 0.573 nM), the “Survival (days) 3 mg/kg SSV po” value [2] was 8.0 days and the “Activity (%) 3 mg/kg SSV po” value [2] was 96%. The “Survival (days) 10 mg/kg SSV po” value [2] was 9.2 days and the IC50 [3, 7] was 0.44 ng/mL (≈ 1.05 nM).
In the case of `CC1(C)CC(NC2CCC3(CC2)OOC2(O3)C3CC4CC(C3)CC2C4)CC(C)(C)N1` (stereo not shown) [OZ171], the IC50 [1, 4] is reported as 1.3 ng/mL (≈ 3.11 nM), the “Survival (days) 10 mg/kg po” value [2] is reported as 9.0 days and the “Activity (%) 10 mg/kg po” value [2] is reported as 98%. For the same compound, the “Survival (days) 10 mg/kg SSV po” value [2] was 7.0 days, the “Activity (%) 10 mg/kg SSV po” value [2] was 85% and the “Survival (days) 10 mg/kg sc” value [2] was 9.7 days. For the same compound, the “Activity (%) 10 mg/kg sc” value [2] was 99.94% and the IC50 [3, 5] was 1.4 ng/mL (≈ 3.34 nM).
In the case of `N=C(N)NC[C@H]1CC[C@]2(CC1)OOC1(O2)C2CC3CC(C2)CC1C3` (stereo partly shown) [OZ237], the IC50 [1, 4] is reported as 5.7 ng/mL (≈ 17 nM), the “Survival (days) 10 mg/kg po” value [2] is reported as 6.0 days and the “Activity (%) 10 mg/kg po” value [2] is reported as 5%. For the same compound, the “Survival (days) 10 mg/kg SSV po” value [2] was 6.0 days, the “Activity (%) 10 mg/kg SSV po” value [2] was 9% and the “Survival (days) 10 mg/kg sc” value [2] was 6.7 days. For the same compound, the “Activity (%) 10 mg/kg sc” value [2] was 52% and the IC50 [3, 5] was 7.1 ng/mL (≈ 21.2 nM).
For `O=C1c2ccccc2C(=O)N1[C@H]1CC[C@]2(CC1)OOC1(O2)C2CC3CC(C2)CC1C3` (stereo partly shown) [OZ136], the IC50 [1, 4] was 23 ng/mL (≈ 56.2 nM), the “Survival (days) 10 mg/kg po” value [2] was 6.0/6.0/6.0 days and the “Activity (%) 10 mg/kg po” value [2] was 0/0/0%. The “Survival (days) 10 mg/kg SSV po” value [2] was 6.0/6.0/6.0 days, the “Activity (%) 10 mg/kg SSV po” value [2] was 0/0/0% and the “Survival (days) 10 mg/kg sc” value [2] was 6.0/6.0/6.0 days. For the same compound, the “Activity (%) 10 mg/kg sc” value [2] was 0/0/0% and the IC50 [3, 5] was 21 ng/mL (≈ 51.3 nM).
For `c1cnn(C[C@H]2CC[C@]3(CC2)OOC2(O3)C3CC4CC(C3)CC2C4)c1` (stereo partly shown) [OZ211], the IC50 [1, 6] was 1 ng/mL (≈ 2.9 nM), the “Survival (days) 10 mg/kg po” value [2] was 8.0 days and the “Activity (%) 10 mg/kg po” value [2] was 82%. For the same compound, the “Survival (days) 10 mg/kg SSV po” value [2] was 7.3 days, the “Activity (%) 10 mg/kg SSV po” value [2] was 78% and the “Survival (days) 10 mg/kg sc” value [2] was 8.7 days. The “Activity (%) 10 mg/kg sc” value [2] was 99.90% and the IC50 [3, 7] was 1.2 ng/mL (≈ 3.48 nM).
`CC(C)(C)NC(=O)N[C@H]1CC[C@]2(CC1)OOC1(O2)C2CC3CC(C2)CC1C3` (stereo partly shown) [OZ222] was tested, and the IC50 [1, 6] was 3.9 ng/mL (≈ 10.3 nM), the “Survival (days) 10 mg/kg po” value [2] was 7.7 days and the “Activity (%) 10 mg/kg po” value [2] was 87%. The “Survival (days) 10 mg/kg SSV po” value [2] was 7.0 days, the “Activity (%) 10 mg/kg SSV po” value [2] was 75% and the “Survival (days) 10 mg/kg sc” value [2] was 10.0 days. The “Activity (%) 10 mg/kg sc” value [2] was 99.76% and the IC50 [3, 7] was 6.3 ng/mL (≈ 16.6 nM).
`NNC(=O)C[C@H]1CC[C@]2(CC1)OO[C@]1(O2)C2CC3CC(C2)CC1C3` [OZ340] was tested, and the IC50 [1, 4] was 4.9 ng/mL (≈ 14.6 nM), the “Survival (days) 3 mg/kg SSV po” value [2] was 6.4 days and the “Activity (%) 3 mg/kg SSV po” value [2] was 36%. The “Survival (days) 10 mg/kg SSV po” value [2] was 9.2 days, the “Activity (%) 10 mg/kg SSV po” value [2] was 93% and the IC50 [3, 5] was 2.9 ng/mL (≈ 8.62 nM).
With `O=CN1CCN(C(=O)C[C@H]2CC[C@]3(CC2)OO[C@]2(O3)C3CC4CC(C3)CC2C4)CC1` [OZ294] the IC50 [1, 6] was 0.39 ng/mL (≈ 0.932 nM), the “Survival (days) 3 mg/kg SSV po” value [2] was 7.4 days and the “Activity (%) 3 mg/kg SSV po” value [2] was 70%. For the same compound, the “Survival (days) 10 mg/kg SSV po” value [2] was 8.6 days, the “Activity (%) 10 mg/kg SSV po” value [2] was 99.79% and the IC50 [3, 7] was 0.63 ng/mL (≈ 1.51 nM).
